Measurements reported in the NIST ThermoML archive (doi:10.1021/acs.jced.6b00517).

Assays:
[1] = Liquid; for mass density: 298.15 K, 101.3 kPa, Vibrating tube method; for vapor or sublimation pressure: Ebulliometric method (Recirculating still)
[2] = refractive index (Na D-line) (dimensionless); conditions: 298.15 K; 101.3 kPa; Liquid; Standard Abbe refractometry
[3] = Boiling temperature at pressure P; conditions: 101.3 kPa; Liquid; Ebulliometric method (Recirculating still)

CCCCO [butan-1-ol]
Conditions | mass density [kg/m3] | refractive index
[1] | 805.94 | –
[2] | – | 1.3971

[1]
Conditions | vapor or sublimation pressure [kPa]
367.03 K | 40
381.07 K | 70

CCCCOC(=O)OCCCC [dibutyl carbonate]
Conditions | Boiling temperature at pressure P [°C] | mass density [kg/m3] | refractive index
[1] | – | 925.17 | –
[2] | – | – | 1.4115
[3] | 204.50 | – | –

[1]
Conditions | vapor or sublimation pressure [kPa]
383.16 K | 5
403.77 K | 10
410.07 K | 15
420.73 K | 20
427.86 K | 25
434.15 K | 30
439.03 K | 35
443.67 K | 40
443.78 K | 40
449.33 K | 45
453.17 K | 50
456.63 K | 55
459.47 K | 60
461.31 K | 65
463.87 K | 70
464.01 K | 70
465.41 K | 75
468.56 K | 80
470.27 K | 85
472.83 K | 90
475.91 K | 95
478.02 K | 100
478.18 K | 100

CO [methanol]
Conditions | Boiling temperature at pressure P [°C] | mass density [kg/m3] | refractive index
[1] | – | 786.61 | –
[2] | – | – | 1.3266
[3] | 64.68 | – | –

[1]
Conditions | vapor or sublimation pressure [kPa]
315.78 K | 40
328.56 K | 70
337.33 K | 100
